Results on seven compounds are retold here after publication PMC6278366, “Synthesis and Evaluation of Anticancer Activities of Novel C-28 Guanidine-Functionalized Triterpene Acid Derivatives” (Molecules, 2018).

Structures are written as SMILES. Counter-ions that a name gives are not always drawn. Like-named read-outs stand apart in the source and are kept apart here.

The test system of data set [1] is K562 (chronic myeloid leukemia) cells. As to the kind of experiment: Cytotoxicity assay (7-AAD viability, flow cytometry), K562. It is filed as cell-based, human. The conditions noted are these: at least three experiments in duplicate, viable cells, read-out: IC50 K562. As to the method: (§1) Cells (Jurkat, K562, U937, HeLa, HEK293 and normal Fibroblasts) were purchased from Russian Cell Culture Collection (Institute of Cytology of the Russian Academy of Sciences, Saint Petersburg, Russia) and cultured according to standard mammalian tissue culture protocols and sterile technique. Human cell lines HEK293 and HeLa were obtained from the HPA Culture Collections (Salisbury, UK). All cell lines used in the study were tested and shown to be free of mycoplasma and viral contamination.
(§2) Cells were maintained in RPMI 1640 (Jurkat, K562, U937) (Gibco, Thermo Fisher Scientific, Waltham, MA, USA) supplemented with 4 mM glutamine, 10% FBS (Sigma, Burlington, MA, USA) and 100 units/mL penicillin-streptomycin (Sigma). All types of cells were grown in an atmosphere of 5% CO2 at 37 °C. The cells were subcultures at 2–3 days intervals. Adherent cells (HEK293, HeLa, fibroblasts) were suspended using trypsin/EDTA and counted after they have reached 80% confluency. Cells were then seeded in 24 well plates at 5 × 10^4 cells per well and incubated overnight. Jurkat, K562, U937 cells were subcultured at 2 day intervals with a seeding density of 1 × 10^5 cells per 24 well plates in RPMI with 10% FBS.
(§3) Viability (Live/dead) assessment was performed by staining cells with 7-AAD (7-Aminoactinomycin D) (Biolegend, San Diego, CA, USA). Cells were treated of test compounds with six different concentrations (1, 5, 10, 15, 30 and 60 μM). After treatment, cells were harvested, washed 1–2 times with phosphate-buffered saline (PBS) and centrifuged at 400× g for 5 min. Cell pellets were resuspended in 200 μL of flow cytometry staining buffer (PBS without Ca^2+ and Mg^2+, 2.5% FBS) and stained with 5 μL of 7-AAD staining solutionfor 15 min at room temperature in the dark. Samples were acquired on NovoCyteTM 2000 FlowCytometry System (ACEA, San Diego, CA, USA) equipped with 488 nm argon laser. Detection of 7-AAD emission was collected through a 675/30 nm filter in FL4 channel.
(In general: A flow cytometer gives signals particle by particle.)

A further data set concerns Jurkat cells. Nature of the data set: Annexin V/7-AAD apoptosis assay by flow cytometry. It is filed as cell-based, human. The following applies: 48 h; for living (vital) cells (Q7-3) / necrotic cells (Q7-1) / early apoptotic cells (Q7-4) / late apoptotic cells (Q7-2): at IC50 concentration (59 μM Dihydro BA; 4 μM 15, 15c, 18c; 8 μM 20c); for total number of apoptotic cells (early + late): at IC50 concentration (59 μM Dihydro BA; 4 μM 15c; 8 μM 20c). As to the method:
Apoptosis was determined by flow cytometric analysis of Annexin V and 7-aminoactinomycin D staining. Briefly, 200 μL of Guava Nexin reagent (Millipore, Bedford, MA, USA) was added to 5 × 10^5 cells in 200 μL, and the cells were incubated with the reagent for 20 min at room temperature in the dark. […] At the end of incubation, the cells were analyzed on NovoCyteTM 2000 FlowCytometry System (ACEA). Different states of cell death were defined as follows: normal cells are localized in the lower-left quadrant (Annexin V^−/PI^−); early apoptotic cells are in the lower-right quadrant (Annexin V^+/PI^−); late apoptotic cells and necrotic cells are in the upper-right quadrant (Annexin V^+/PI^+); and necrotic cells are in the upper-left quadrant (Annexin V^−/PI^+).
Figure 2 AnnexinV/7-AAD staining upon induction of apoptosis in Jurkat cells. […] Then, the cells were harvested, stained with Annexin V/7-AAD and analyzed by flow cytometry. The experiments were performed three times, and the results of the representative experiments are shown. The first cytogram represents an untreated cell sample (A); after incubation with dihydrobetulinic acid for 24 h (B) and for 48 h (C); after incubation with compound 15 for 24 h (D) and for 48 h (E); after incubation with compound 15c for 24 h (F) and for 48 h (G); after incubation with compound 18c for 24 h (H) and for 48 h (I); after incubation with compound 20c for 24 h (J) and for 48 h (K). Q7-1, necrotic cells; Q7-2, late apoptotic cells; Q7-3, living cells; Q7-4, early apoptotic cells. TEXT PRINTED IN THE PICTURE: (B) Dihydro BA: Q7-1 0.96% (59 μM); Q7-2 12.11% (59 μM); Q7-3 80.09% (59 μM); Q7-4 6.84% (59 μM) | (C) Dihydro BA: Q7-1 2.34% (59 μM); Q7-2 20.53% (59 μM); Q7-3 73.11% (59 μM); Q7-4 4.02% (59 μM) | (D) Compound 15: Q7-1 3.08% (4 μM); Q7-2 2.24% (4 μM); Q7-3 92.34% (4 μM); Q7-4 2.34% (4 μM) | (E) Compound 15: Q7-1 5.53% (4 μM); Q7-2 91.79% (4 μM); Q7-3 0.58% (4 μM); Q7-4 2.10% (4 μM) | (F) Compound 15c: Q7-1 1.51% (4 μM); Q7-2 2.64% (4 μM); Q7-3 84.92% (4 μM); Q7-4 10.93% (4 μM) | (G) Compound 15c: Q7-1 21.72% (4 μM); Q7-2 16.54% (4 μM); Q7-3 54.49% (4 μM); Q7-4 7.25% (4 μM) | (H) Compound 18c: Q7-1 1.48% (4 μM); Q7-2 3.70% (4 μM); Q7-3 91.14% (4 μM); Q7-4 3.67% (4 μM) | (I) Compound 18c: Q7-1 20.73% (4 μM); Q7-2 14.32% (4 μM); Q7-3 58.16% (4 μM); Q7-4 6.79% (4 μM) | (J) Compound 20c: Q7-1 3.78% (8 μM); Q7-2 1.72% (8 μM); Q7-3 92.26% (8 μM); Q7-4 2.24% (8 μM) | (K) Compound 20c: Q7-1 6.09% (8 μM); Q7-2 7.35% (8 μM); Q7-3 78.36% (8 μM); Q7-4 8.20% (8 μM) DOUBTS OF THE COPYIST ABOUT THIS PICTURE: Panel A (Control, untreated cells: Q7-1 3.75%, Q7-2 0.00%, Q7-3 96.24%, Q7-4 0.01%) left out of lines because it is not a substance / Dihydro BA panel B, Q7-3: 80.09% partly overlaid by plot points, 80.09 or 80.03 / Dihydro BA panel C, Q7-3: 73.11% partly overlaid by plot points / Compound 18c panel I, Q7-3: 58.16% small print, 58.16 or 58.18 / Compound 15 panel E, Q7-3: 0.58% small print, 0.58 or 0.56

Data set [2] relates to U937 (histiocytic lymphoma) cells. Nature of the data set: Cytotoxicity assay (7-AAD viability, flow cytometry), U937. The class given is cell-based, human. The conditions noted are these: at least three experiments in duplicate, viable cells, read-out: IC50 U937. As to the method:
as §1, §2, §3

The test system of a further data set is normal human fibroblasts. Nature of the data set: Cytotoxicity assay (7-AAD viability, flow cytometry), normal fibroblasts. It is filed as cell-based. The conditions noted are these: mean ± SE, at least three experiments in duplicate. As to the method: as §1
(§4) HEK293, HeLa cell lines and fibroblasts were cultured as monolayers and maintained in Dulbecco’s modified Eagle’s medium (DMEM, Gibco BRL, Waltham, MA, USA) supplemented with 10% foetal bovine serum and 1% penicillin-streptomycin solution at 37 °C in a humidified incubator under a 5% CO2 atmosphere.
as §2
as §3, with “Cells were treated of test compounds with six different concentrations (1, 5, 10, 15, 30 and 60 μM).” left out

Data set [3] relates to HEK293 (embryonic kidney) cells. As to the kind of experiment: Cytotoxicity assay (7-AAD viability, flow cytometry), HEK293. It is filed as cell-based, human. The following applies: at least three experiments in duplicate, viable cells. As to the method: as §1, §4, §2, §3
In data set [4] the test system is HeLa (cervical cancer) cells. As to the kind of experiment: Cytotoxicity assay (7-AAD viability, flow cytometry), HeLa. It is filed as cell-based, human. The following applies: mean ± SE, at least three experiments in duplicate, viable cells. As to the method:
as §1, §4, §2, §3

In data set [5] the test system is Jurkat (T-lymphoblastic leukemia) cells. Nature of the data set: cells. The following applies: mean ± SE, at least three experiments in duplicate, viable cells, read-out: IC50 Jurkat. The class given is cell-based. As to the method: as §1, §2, §3

As to `CC(=O)O[C@H]1CC[C@@]2(C)C(CC[C@]3(C)C2CCC2C4C(C(C)C)CC[C@]4(C(=O)NCCN(CCNC(=N)N)CCNC(=N)N)CC[C@]23C)C1(C)C` (single isomer, unassigned) (as salt: trifluoroacetate) [Compound 12a, 3β-N-[2-(N,N′-bis-Ethylgyanidine)-aminoethyl]-3-O-acetyl-lupane-28-amide trifluoroacetate], the melting point – broadly, the temperature, or range, at which the solid turns liquid – lay in the range of 116 to 118 °C.
`CC(=O)O[C@H]1CC[C@@]2(C)C(CC[C@]3(C)C2CC=C2C4CC(C)(C)CC[C@]4(C(=O)OCC(CO)(CO)NC(=N)N)CC[C@]23C)C1(C)C` (stereo partly drawn) [Compound 20c, 3β-[2-Guanidine-3-hydroxy-2-(hydroxymethyl)propyl]-3-O-acetyl-olean-12-en-28-oate hydrochloride]: the IC50 (commonly the point on the concentration scale where inhibition reaches its midpoint) in data set [1] (mean ± SE) came to 13 ± 0.45 µM; in data set [2] (mean ± SE), 6.8 ± 0.11 µM; in the data set with normal human fibroblasts, 54 ± 0.12 µM; in data set [3] (mean ± SE), 19 ± 0.17 µM; in data set [4] it was 17 ± 0.32 µM; in data set [5], 7.6 ± 0.33 µM. Further, in the data set with Jurkat cells, the “living (vital) cells (Q7-3)” value stood at 78.4%. The “necrotic cells (Q7-1)” value in the data set on Jurkat cells was 6.1%. Also, in the data set on Jurkat cells, the “total number of apoptotic cells (early + late)” value is “about 15.5%”.
For the compound `CC(C)[C@@H]1CC[C@]2(C(=O)O)CC[C@]3(C)[C@H](CC[C@@H]4[C@@]5(C)CC[C@H](O)C(C)(C)[C@@H]5CC[C@]43C)[C@@H]12` [Dihydro BA, 20,29-dihydrobetulinic acid, reference compound], the IC50 in data set [1] (Homo sapiens, K562, mean ± SE) is 44 ± 0.24 µM; in data set [2] (Homo sapiens, U-937, mean ± SE), 39 ± 0.38 µM; in the data set with normal human fibroblasts (Homo sapiens, Fibroblast), 517 ± 0.26 µM; in data set [3] (Homo sapiens, HEK293, mean ± SE), 128 ± 0.32 µM; in data set [4] (Homo sapiens, HeLa) it was 132 ± 0.47 µM; in data set [5] (Homo sapiens, Jurkat), 59 ± 0.31 µM. Moreover, the “early apoptotic cells (Q7-4)” value in the data set on Jurkat cells is recorded as 4.0%. In addition, the “late apoptotic cells (Q7-2)” value in the data set with Jurkat cells is 20.5%. In addition, the “living (vital) cells (Q7-3)” value in the data set on Jurkat cells is 73.1%. The “total number of apoptotic cells (early + late)” value in the data set on Jurkat cells was “around 24%”.
As to `CC(=O)O[C@H]1CC[C@@]2(C)C(CC[C@]3(C)C2CCC2C4C(C(C)C)CC[C@]4(C(=O)NCCNC(=N)N)CC[C@]23C)C1(C)C` (stereo partly drawn) (as salt: hydrochloride) [Compound 10b, 3β-N-(2-Ethylgyanidine)-3-O-acetyl-lupane-28-amide hydrochloride], the melting point was in the range of 192 to 194 °C.
As for `CC(=O)O[C@H]1CC[C@@]2(C)C(CC[C@]3(C)C2CC=C2C4[C@@H](C)[C@H](C)CC[C@]4(C(=O)OCC(CO)(CO)NC(=N)N)CC[C@]23C)C1(C)C` (single isomer, unassigned) [Compound 18c, 3β-[2-Guanidine-3-hydroxy-2-(hydroxymethyl)propyl]-3-O-acetyl-urs-12-en-28-oate hydrochloride], the concentration for half-maximal inhibition (IC50) in data set [1] (mean ± SE) was 11 ± 0.18 µM; in data set [2] (mean ± SE), 5.3 ± 0.29 µM; in the data set on normal human fibroblasts, 51 ± 0.26 µM; in data set [3] (mean ± SE), 14 ± 0.34 µM; in data set [4], 12 ± 0.29 µM; in data set [5] it was 3.8 ± 0.23 µM. For the same compound, the “early apoptotic cells (Q7-4)” value with Jurkat cells is recorded as 6.8%. The “late apoptotic cells (Q7-2)” value in the data set on Jurkat cells came out at 14.3%. In the data set with Jurkat cells, the “necrotic cells (Q7-1)” value turned out to be 20.7%.
For `CC(=O)O[C@H]1CC[C@@]2(C)C(CC[C@]3(C)C2CCC2C4C(C(C)C)CC[C@]4(C(=O)NCCN(CCNC(=N)N)CCNC(=N)N)CC[C@]23C)C1(C)C` (single isomer, unassigned) (as salt: hydrochloride) [Compound 12b, 3β-N-[2-(N,N′-bis-Ethylgyanidine)-aminoethyl]-3-O-acetyl-lupane-28-amide dihydrochloride], the melting point fell in the range of 198 to 200 °C.
As for `CC(=O)O[C@H]1CC[C@@]2(C)C(CC[C@]3(C)C2CCC2C4C(C(C)C)CC[C@]4(C(=O)NCCCN4CCN(CCCNC(=N)N)CC4)CC[C@]23C)C1(C)C` (stereo partly drawn) (as salt: trifluoroacetate) [Compound 13a, 3β-N-{[3-(3-Propylguanidine)piperazinyl]propyl}-3-O-acetyl-lupane-28-amide trifluoroacetate], the melting point was in the range of 92 to 94 °C.
